In PMC9106035, “Synthesis, X-ray Structure and Biological Studies of New Self-Assembled Cu(II) Complexes Derived from s-Triazine Schiff Base Ligand” (Molecules, 2022):
≈ marks a conversion by molar mass, not a printed value. Where two headings read alike, the source gives them in different places.

How the values were obtained:
[1] = system: lung carcinoma A-549 cell line; assay: Anticancer activity, MTT viability assay; format: cell-based; conditions: for SI = CC50/IC50: CC50 (MRC-5) / IC50 (A-549); for viability at 2.5 µM / inhibition at 2.5 µM: sample conc. 2.5 µM; for viability at 5 µM / inhibition at 5 µM: sample conc. 5.0 µM; for viability at 9.8 µM / inhibition at 9.8 µM: sample conc. 9.8 µM; for viability at 39.1 µM / inhibition at 39.1 µM: sample conc. 39.1 µM; for IC50: A-549 cells, 24 h, MTT
Experimental: The studied compounds were examined for their anticancer activity against the lung carcinoma A-549 cell line.
(§1) Method S4 Evaluation of Cytotoxic activity
(§2) The cells were propagated in Dulbecco’s modified Eagle’s medium (DMEM) supplemented with 10% heat-inactivated fetal bovine serum, 1 % L-glutamine, HEPES buffer and 50µg/mL Gentamycin. All cells were maintained at 37 °C in a humidified atmosphere with 5% CO2 and were subcultured tw o times a week.
(§3) Cytotoxicity evaluation using viability assay
(§4) For cytotoxicity assay, the cells were seeded in 96-well plate at a cell concentration of 1×10^4 cells per well in 100µl of growth medium. Fresh medium containing different concentrations of the test sample was added after 24 h of seeding. Serial two-fold dilutions of the tested chemical compound were added to confluent cell monolayers dispensed into 96-well, flat-bottomed microtiter plates (Falcon, NJ, USA) using a multichannel pipette. The microtiter plates were incubated at 37 °C in a humidified incubator with 5% CO2 for a period of 24 h. Three wells were used for each concentration of the test sample. Control cells were incubated without test sample and with or without DMSO. The little percentage of DMSO present in the […]
(§5) cells for at 37°C, for 24 h, the viabl e cells yield was determined by the MTT test.
(§6) Briefly, the media was removed from the 96 well plate and replaced with 100 µL of fresh culture DMEM m edium without phenol red then 10 µL of the 12 mM MTT stock solution (5 mg of MTT in 1 mL of PBS) to each well including the untreated controls. The 96 well plates were then incubated at 37°C and 5% CO2 for 4 hours. An 85 µL aliquot of the media was removed from t he wells, and 50 µL of DMSO was added to each well and mixed thoroughly with the pipette and incubated at 37°C for 10 min. Then, the optical density was measured at 590 nm with the microplate reader (SunRise, TECAN, Inc, USA) to determine the number of viable cells and the percentage of viability was calculat ed as [(ODt/ODc)]x100% where ODt i s the mean optical density of wells treated with the tested s ample and ODc is the mean optical density of untreated cells. The relation between surviving cells and drug concentration is plotted to get the survival curve of each tumor cell line after treatment with the specified compound. The 50% inhibitory concentration (IC50), the concentration required to cause t oxic effects in 50% of intact cells, was estimated from graphic plots of the dose response curve for each conc. using Graphpad Prism software (San Diego, […]

[2] = system: normal human lung fibroblast MRC-5 cells; assay: Cytotoxic activity on normal cells, MTT viability assay; format: cell-based; conditions: Homo sapiens, MRC5, MRC-5, read-out: Inhibitory %; for inhibition at 2.5 µM: sample conc. 2.5 µM; for inhibition at 5 µM: sample conc. 5.0 µM; for inhibition at 9.8 µM: sample conc. 9.8 µM; for inhibition at 39.1 µM: sample conc. 39.1 µM
Experimental: In this regard, the selectivity index (SI) was calculated as the ratio of cytotoxic effect on the normal cell line to the cytotoxic effect on the cancer cell line.
as §1, §2, §3, §4, §5, §6

[3] = DPPH radical scavenging assay; format: biochemical; conditions: for IC50 (DPPH scavenging): antioxidant activity
Experimental: The studied Cu(II) complexes and the free ligands were assessed for their antioxidant activity levels using an α,α-diphenyl-β-picrylhydrazyl (DPPH) scavenging assay, and the results are given in Table 7. […] The results indicated better antioxidant activity for DMAT than for DMOHT, indicating the effect of the substituent at the phenyl moiety on the antioxidant activity level of the free ligand. […] On the other hand, the Cu(II) complexes have improved levels of antioxidant activity compared to the free ligands.
Method S3 DPPH Radical Scavenging Activity:
Freshly prepared (0.004 %w/v) methanol solution of 2,2-diphenyl-1-pi crylhydrazyl (DPPH) radical was prepared and stored at 10 °C in dark place. A methanolic solution of the test compound was prepared using the same procedure. A 40 uL aliquot of the methanol solution was added to 3mL of DPPH solution. Absorbance measurements were recorded immediately with a UV-visible spectrophotometer (Milton Roy, Spectronic 1201). The decrease in absorbance at 515 nm was determined continuously, with data being recorded at 1 min intervals until the absorbance stabilized (16 min). The absorbance of the DPPH radical without antioxidant (control) and the reference compound ascorbic acid were also measured.
All the determinations were performed in three replicates and averaged. The percentage inhibition (PI) of the DPPH radical was calculated according to the […]
PI = [{(AC- AT)/ AC} x 100] (1)
Where AC = Absorbance of the control at t = 0 min and AT = absorbance of the sample+DPPH at t = 16 min. The 50% inhibitory concentration (IC50), the concentration required t o inhibit DPPH radical by 50%, was estimated from graphic plots of the dose respons e curve.

[4] = Homo sapiens, A549, A-549, Table S5
[5] = Homo sapiens, A549, A-549, Table S5, read-out: Inhibitory %
[6] = Homo sapiens, A549, A-549, Table S7
[7] = Homo sapiens, A549, A-549, Table S7, read-out: Inhibitory %

Structure (SMILES): CC(=NNc1nc(N2CCOCC2)nc(N2CCOCC2)n1)c1ccccc1N [DMAT, 2-(1-(2-(4,6-dimorpholino-1,3,5-triazin-2-yl)hydrazono)ethyl)aniline]
- SI = CC50/IC50 [1]: 1.30
- viability at 2.5 µM [1, 4]: 100%
- inhibition at 2.5 µM [1, 5]: 0%
- viability at 5 µM [1, 4]: 100%
- inhibition at 5 µM [1, 5]: 0%
- viability at 9.8 µM [1, 4]: 100%
- inhibition at 9.8 µM [1, 5]: 0%
- viability at 19.6 µM ([1]; Homo sapiens, A549, A-549, sample conc. 19.6 µM, Table S5): 100%
- inhibition at 19.6 µM ([1]; Homo sapiens, A549, A-549, sample conc. 19.6 µM, Table S5, read-out: Inhibitory %): 0%
- viability at 39.1 µM [1, 4]: 100%
- inhibition at 39.1 µM [1, 5]: 0%
- viability at 78.4 µM ([1]; Homo sapiens, A549, A-549, sample conc. 78.4 µM, Table S5): 100%
- inhibition at 78.4 µM ([1]; Homo sapiens, A549, A-549, sample conc. 78.4 µM, Table S5, read-out: Inhibitory %): 0%
- viability at 156.8 µM ([1]; Homo sapiens, A549, A-549, sample conc. 156.8 µM, Table S5): 98%
- inhibition at 156.8 µM ([1]; Homo sapiens, A549, A-549, sample conc. 156.8 µM, Table S5, read-out: Inhibitory %): 1.96%
- viability at 313.7 µM ([1]; Homo sapiens, A549, A-549, sample conc. 313.7 µM, Table S5): 82.7%
- inhibition at 313.7 µM ([1]; Homo sapiens, A549, A-549, sample conc. 313.7 µM, Table S5, read-out: Inhibitory %): 17.3%
- viability at 627.4 µM ([1]; Homo sapiens, A549, A-549, sample conc. 627.4 µM, Table S5): 39.6%
- inhibition at 627.4 µM ([1]; Homo sapiens, A549, A-549, sample conc. 627.4 µM, Table S5, read-out: Inhibitory %): 60.4%
- viability at 1254.8 µM ([1]; Homo sapiens, A549, A-549, sample conc. 1254.8 µM, Table S5): 17.6%
- inhibition at 1254.8 µM ([1]; Homo sapiens, A549, A-549, sample conc. 1254.8 µM, Table S5, read-out: Inhibitory %): 82.4%
- IC50 ([1]; Homo sapiens, A549): 551 µM
- inhibition at 2.5 µM ([2]; Table S10): 0%
- inhibition at 5 µM ([2]; Table S10): 0%
- inhibition at 9.8 µM ([2]; Table S10): 0%
- inhibition at 19.6 µM ([2]; sample conc. 19.6 µM, Table S10): 0%
- inhibition at 39.1 µM ([2]; Table S10): 0%
- inhibition at 78.4 µM ([2]; sample conc. 78.4 µM, Table S10): 0%
- inhibition at 156.8 µM ([2]; sample conc. 156.8 µM, Table S10): 0.15%
- inhibition at 313.7 µM ([2]; sample conc. 313.7 µM, Table S10): 10.7%
- inhibition at 627.4 µM ([2]; sample conc. 627.4 µM, Table S10): 46.1%
- inhibition at 1254.8 µM ([2]; sample conc. 1254.8 µM, Table S10): 73.9%
- DPPH Scavenging % ([3]; Conc. 2.5 μg/mL): 20.79%
- DPPH Scavenging % ([3]; Conc. 5 μg/mL): 28.65%
- DPPH Scavenging % ([3]; Conc. 10 μg/mL): 35.17%
- DPPH Scavenging % ([3]; Conc. 20 μg/mL): 54.23%
- DPPH Scavenging % ([3]; Conc. 40 μg/mL): 70.89%
- DPPH Scavenging % ([3]; Conc. 80 μg/mL): 79.28%
- DPPH Scavenging % ([3]; Conc. 160 μg/mL): 86.59%
- DPPH Scavenging % ([3]; Conc. 320 μg/mL): 91.37%
- DPPH Scavenging % ([3]; Conc. 640 μg/mL): 94.08%
- DPPH Scavenging % ([3]; Conc. 1280 μg/mL): 95.31%
- IC50 (DPPH scavenging) [3]: 17.83 ± 0.65 mg/L (≈ 44.7 µM)

Structure (SMILES): CC(=NNc1nc(N2CCOCC2)nc(N2CCOCC2)n1)c1ccccc1O [DMOHT, 2-(1-(2-(4,6-dimorpholino-1,3,5-triazin-2-yl)hydrazono)ethyl)phenol]
- SI = CC50/IC50 [1]: 1.77
- viability at 2.5 µM [1, 6]: 100%
- inhibition at 2.5 µM [1, 7]: 0%
- viability at 5 µM [1, 6]: 100%
- inhibition at 5 µM [1, 7]: 0%
- viability at 9.8 µM [1, 6]: 100%
- inhibition at 9.8 µM [1, 7]: 0%
- viability at 19.5 µM ([1]; Homo sapiens, A549, A-549, sample conc. 19.5 µM, Table S7): 100%
- inhibition at 19.5 µM ([1]; Homo sapiens, A549, A-549, sample conc. 19.5 µM, Table S7, read-out: Inhibitory %): 0%
- viability at 39.1 µM [1, 6]: 100%
- inhibition at 39.1 µM [1, 7]: 0%
- viability at 78.2 µM ([1]; Homo sapiens, A549, A-549, sample conc. 78.2 µM, Table S7): 98.2%
- inhibition at 78.2 µM ([1]; Homo sapiens, A549, A-549, sample conc. 78.2 µM, Table S7, read-out: Inhibitory %): 1.75%
- viability at 156.5 µM ([1]; Homo sapiens, A549, A-549, sample conc. 156.5 µM, Table S7): 90.7%
- inhibition at 156.5 µM ([1]; Homo sapiens, A549, A-549, sample conc. 156.5 µM, Table S7, read-out: Inhibitory %): 9.33%
- viability at 312.9 µM ([1]; Homo sapiens, A549, A-549, sample conc. 312.9 µM, Table S7): 75.1%
- inhibition at 312.9 µM ([1]; Homo sapiens, A549, A-549, sample conc. 312.9 µM, Table S7, read-out: Inhibitory %): 24.9%
- viability at 625.8 µM ([1]; Homo sapiens, A549, A-549, sample conc. 625.8 µM, Table S7): 43.9%
- inhibition at 625.8 µM ([1]; Homo sapiens, A549, A-549, sample conc. 625.8 µM, Table S7, read-out: Inhibitory %): 56.1%
- viability at 1251.7 µM ([1]; Homo sapiens, A549, A-549, sample conc. 1251.7 µM, Table S7): 21.5%
- inhibition at 1251.7 µM ([1]; Homo sapiens, A549, A-549, sample conc. 1251.7 µM, Table S7, read-out: Inhibitory %): 78.5%
- IC50 ([1]; Homo sapiens, A549): 565 µM
- inhibition at 2.5 µM ([2]; Table S12): 0%
- inhibition at 5 µM ([2]; Table S12): 0%
- inhibition at 9.8 µM ([2]; Table S12): 0%
- inhibition at 19.5 µM ([2]; sample conc. 19.5 µM, Table S12): 0%
- inhibition at 39.1 µM ([2]; Table S12): 0%
- inhibition at 78.2 µM ([2]; sample conc. 78.2 µM, Table S12): 0%
- inhibition at 156.5 µM ([2]; sample conc. 156.5 µM, Table S12): 2.14%
- inhibition at 312.9 µM ([2]; sample conc. 312.9 µM, Table S12): 10.4%
- inhibition at 625.8 µM ([2]; sample conc. 625.8 µM, Table S12): 32.4%
- inhibition at 1251.7 µM ([2]; sample conc. 1251.7 µM, Table S12): 61.8%
- DPPH Scavenging % ([3]; Conc. 2.5 μg/mL): 5.73%
- DPPH Scavenging % ([3]; Conc. 5 μg/mL): 10.48%
- DPPH Scavenging % ([3]; Conc. 10 μg/mL): 19.87%
- DPPH Scavenging % ([3]; Conc. 20 μg/mL): 31.95%
- DPPH Scavenging % ([3]; Conc. 40 μg/mL): 47.09%
- DPPH Scavenging % ([3]; Conc. 80 μg/mL): 61.32%
- DPPH Scavenging % ([3]; Conc. 160 μg/mL): 73.64%
- DPPH Scavenging % ([3]; Conc. 320 μg/mL): 84.93%
- DPPH Scavenging % ([3]; Conc. 640 μg/mL): 88.54%
- DPPH Scavenging % ([3]; Conc. 1280 μg/mL): 93.87%
- IC50 (DPPH scavenging) [3]: 48.2 ± 1.08 mg/L (≈ 121 µM)
